Assay results from patent US20260138959A1, “QUINAZOLINE DERIVATIVE COMPOUND AND USE THEREOF” (VORONOI INC., priority 2021, published 2026).

Tests used:
human PDGFR-α(wt) = biological target: T1, human PDGFR-α(wt) (Homo sapiens, UniProt P16234); experiment: Enzyme inhibitory activity, ADP-Glo kinase assay, PDGFR-α(wt); format: biochemical; settings: read-out: PDGFR-α (IC50 class)
T1 construct: purchased Signalchem P12-18G
Summary of the method: (§1)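 Purified human kinases incubated with ATP and substrate 1–2 h at 25 °C in 40 mM Tris-HCl pH 7.4, 20 mM MgCl2, BSA, DTT, compound over 12 concentrations (10–0.00005645 μM final). ADP formed quantified by ADP-Glo luminescence; IC50 from inhibition versus DMSO control, reported in bins A–D.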

Ba/F3-TEL-PDGFβ(WT) = experiment: Proliferation inhibitory activity on Ba/F3 cell (CellTiter-Glo, 72 hours), PDGFR-β; format: cell-based; settings: Mus musculus, BaF3, read-out: Ba/F3 (nM) Tel-PDGFRβ (GI50 class)
Summary of the method: (§2)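 Read-out: CellTiter-Glo after 72 h at 37 °C compound exposure, expressed as percent of vehicle-treated cells, GI50 calculated. Engineered Ba/F3 cells (3×10^3/well) received twelve 3-fold serial dilutions, final 0.00005–10 μM.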

Ba/F3-TEL-PDGFRα(WT) = experiment: Proliferation inhibitory activity on Ba/F3 cell (CellTiter-Glo, 72 hours), PDGFR-α; format: cell-based; settings: Mus musculus, BaF3, read-out: Ba/F3 (nM) Tel-PDGFRα (GI50 class)
Summary of the method: as §2

Ba/F3-c-KIT(D816V) = experiment: Proliferation inhibitory activity on Ba/F3 cell (CellTiter-Glo, 72 hours), c-KIT(D816V); format: cell-based; settings: Mus musculus, BaF3, read-out: Ba/F3 (nM) c-KIT (D816V) (GI50 class)
Summary of the method: as §2

c-KIT D816V [1] = biological target: T2, c-KIT D816V (Homo sapiens, UniProt P10721, D816V); experiment: Enzyme inhibitory activity, ADP-Glo kinase assay, c-KIT(D816V); format: biochemical; set-up: purchased Signalchem C06-12LG; settings: read-out: c-KIT (D816V) (IC50 class)
T2 sequence (P10721 26-976 D816V): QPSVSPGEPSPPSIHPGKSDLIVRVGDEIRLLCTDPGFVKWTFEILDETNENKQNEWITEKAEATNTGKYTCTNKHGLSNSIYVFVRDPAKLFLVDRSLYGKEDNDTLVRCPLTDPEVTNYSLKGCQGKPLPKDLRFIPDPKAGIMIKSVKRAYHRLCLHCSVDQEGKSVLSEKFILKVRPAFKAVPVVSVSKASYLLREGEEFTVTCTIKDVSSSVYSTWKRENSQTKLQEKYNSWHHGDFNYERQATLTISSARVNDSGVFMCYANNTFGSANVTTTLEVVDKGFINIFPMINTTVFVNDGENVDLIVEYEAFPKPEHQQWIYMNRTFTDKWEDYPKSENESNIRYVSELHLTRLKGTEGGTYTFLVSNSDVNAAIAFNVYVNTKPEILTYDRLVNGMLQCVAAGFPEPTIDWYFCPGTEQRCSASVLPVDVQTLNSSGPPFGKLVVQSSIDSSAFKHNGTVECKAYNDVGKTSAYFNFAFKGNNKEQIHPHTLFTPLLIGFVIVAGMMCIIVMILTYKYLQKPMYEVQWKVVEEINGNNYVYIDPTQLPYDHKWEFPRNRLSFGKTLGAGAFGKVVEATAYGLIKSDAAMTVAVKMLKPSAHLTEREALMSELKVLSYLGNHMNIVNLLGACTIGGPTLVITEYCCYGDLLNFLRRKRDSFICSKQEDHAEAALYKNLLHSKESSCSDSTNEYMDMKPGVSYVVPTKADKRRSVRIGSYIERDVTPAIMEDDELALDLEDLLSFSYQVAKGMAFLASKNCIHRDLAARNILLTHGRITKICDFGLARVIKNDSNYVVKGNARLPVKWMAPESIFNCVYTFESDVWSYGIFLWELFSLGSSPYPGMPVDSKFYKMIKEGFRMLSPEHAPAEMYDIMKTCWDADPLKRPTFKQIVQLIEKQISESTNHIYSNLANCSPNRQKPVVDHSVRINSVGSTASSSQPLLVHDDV
Method: (§3) In order to evaluate the inhibitory activity of the compounds synthesized according to the above examples on PDGFR-α(wt), PDGFR-β(wt), c-KIT(wt), and c-KIT(D816V) kinases, the following method was performed. The compounds of examples were reacted with purified human PDGFR-α(wt) (Signalchem #P12-18G) enzyme, human PDGFR-β(wt) (Signalchem #P13-11G) enzyme, human c-KIT(wt) (Signalchem #K06-11BG) enzyme, human c-KIT(D816V) (Signalchem #C06-12LG) enzyme, and the enzyme inhibitory abilities were evaluated by the following method.
(§4) The reaction buffer was used as a composition of 40 mM Tris-HCl pH7.4, 20 mM MgCl2, 0.5 mg/ml BSA, 50 μM DTT, and the reactions of all the tests were carried out on the reaction buffer. The compound was diluted in 12 steps using a serial dilution method from a 10 mM DMSO stock, and the enzyme activity was measured at a final compound concentration of 10˜0.00005645 μM. During the test, the enzyme activity was confirmed using in vitro ADP-Glo™ kinase assay (Promega) after reacting with the proper concentration of human PDGFR-α(wt) enzyme, human PDGFR-β(wt), human c-KIT(wt) enzyme, and human c-KIT(D816V) enzyme with purified ATP and enzyme substrate at 25° C. for 1˜2 hours. At a ratio of 2:2:1, an enzyme-active reaction solution, an ADP-Glo reaction solution, and an enzyme-active detection solution were reacted to measure the inhibition of the enzyme's activity with luminoscence. Based on the […] of the enzyme activity of the solvent control that was not treated with the compound, the degree of enzyme activity inhibition was calculated according to the treatment concentration of each compound, and the concentration of each compound that inhibits 50% of enzyme activity was determined as IC50 (nM) value and the value was obtained by using GraphPad Prism 8.3.0 (GraphPad software Inc., San Diego) software. (A: IC50≤50 nM; B: 50 nM<IC50≤100 nM; C: 100 nM<IC50≤500 nM; D: IC50>500 nM).

c-KIT V560G/D816V = experiment: Proliferation inhibitory activity on Ba/F3 cell (CellTiter-Glo, 72 hours), c-KIT V560G/D816V; format: cell-based; settings: Mus musculus, BaF3, c-KIT V560G/D816V cells, read-out: Cell (nM) c-KIT V560G/D816V (GI50 class)
Summary of the method: as §2

c-KIT D814Y = experiment: Proliferation inhibitory activity on Ba/F3 cell (CellTiter-Glo, 72 hours), c-KIT D814Y; format: cell-based; settings: Mus musculus, BaF3, c-KIT D814Y cells, read-out: Cell (nM) c-KIT D814Y (GI50 class)
Method: Ba/F3-TEL-PDGFRα(WT), Ba/F3-TEL-PDGFβ(WT), Ba/F3-c-KIT(D816V) (Kyinno, #KC-0138), c-KIT V560G/D816V, c-KIT D814Y were seeded at 3×10^3/100 μl/well in a clear bottom white 96-well plate. A culture solution containing compounds of 12 concentrations (0.00001-2 mM) serially diluted in 3 folds and the DMSO control group was added at 0.5 μl/well each to a final concentration of 0.00005-10 μM, and then incubated in a CO2 incubator at 37° C. for 72 hours. After 72 hours, the plate treated with the compound was taken out, CellTiter-Glo® Assay (Promega) solution was treated with 100 μl/well, followed by mixing well. After mixing well for about 10 minutes at room temperature, […] was measured using a microplate reader. The data were presented as percentages in proportion to treated cells based on the vehicle, GI50 (nM) values were calculated using GraphPad Prism 8.3.0 (GraphPad software Inc., San Diego).
The inhibitory activities of Ba/F3 expressing PDGFR-α, PDGFR-β, c-KIT(D816V), c-KIT V560G/D816V, and c-KIT D814Y measured as described above were measured and shown in Table 7 below (A: GI50≤200 nM; B: 200 nM<GI50≤500 nM; C: GI50>500 nM).

human PDGFR-β(wt) = biological target: T3, human PDGFR-β(wt) (Homo sapiens, UniProt P09619); experiment: Enzyme inhibitory activity, ADP-Glo kinase assay, PDGFR-β(wt); format: biochemical; settings: read-out: PDGFR-β (IC50 class)
T3 construct: purchased Signalchem P13-11G
T3 sequence (P09619 33-1106): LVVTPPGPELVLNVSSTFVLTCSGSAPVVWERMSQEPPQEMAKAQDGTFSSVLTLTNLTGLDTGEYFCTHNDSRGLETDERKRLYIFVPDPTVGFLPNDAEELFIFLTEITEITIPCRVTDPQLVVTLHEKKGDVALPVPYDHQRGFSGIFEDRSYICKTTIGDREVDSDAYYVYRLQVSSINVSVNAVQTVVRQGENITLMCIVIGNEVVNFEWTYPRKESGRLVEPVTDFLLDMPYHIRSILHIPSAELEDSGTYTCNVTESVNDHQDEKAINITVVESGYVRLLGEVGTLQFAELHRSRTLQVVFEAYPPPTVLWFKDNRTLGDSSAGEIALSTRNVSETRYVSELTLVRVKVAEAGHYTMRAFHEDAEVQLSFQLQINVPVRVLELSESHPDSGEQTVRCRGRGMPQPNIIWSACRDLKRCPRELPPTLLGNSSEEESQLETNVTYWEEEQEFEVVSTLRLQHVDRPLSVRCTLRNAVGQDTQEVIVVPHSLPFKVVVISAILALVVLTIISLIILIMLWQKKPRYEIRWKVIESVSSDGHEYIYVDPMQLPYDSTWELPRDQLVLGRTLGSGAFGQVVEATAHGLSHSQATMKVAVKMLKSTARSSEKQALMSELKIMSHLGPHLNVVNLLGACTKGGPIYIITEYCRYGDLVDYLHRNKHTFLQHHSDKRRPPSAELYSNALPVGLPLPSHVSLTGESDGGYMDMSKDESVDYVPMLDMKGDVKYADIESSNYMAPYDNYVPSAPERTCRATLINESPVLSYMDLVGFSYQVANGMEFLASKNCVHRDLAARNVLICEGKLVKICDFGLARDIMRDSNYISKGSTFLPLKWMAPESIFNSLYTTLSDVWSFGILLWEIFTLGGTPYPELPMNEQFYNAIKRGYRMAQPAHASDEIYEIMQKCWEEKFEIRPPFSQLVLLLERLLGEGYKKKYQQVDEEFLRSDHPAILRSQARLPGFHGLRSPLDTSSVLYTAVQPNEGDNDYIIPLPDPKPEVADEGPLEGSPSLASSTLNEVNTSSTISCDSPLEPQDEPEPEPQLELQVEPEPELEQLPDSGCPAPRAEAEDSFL
Summary of the method: as §1

human c-KIT(wt) = biological target: T4, human c-KIT(wt) (Homo sapiens, UniProt P10721); experiment: Enzyme inhibitory activity, ADP-Glo kinase assay, c-KIT(wt); format: biochemical; settings: read-out: c-KIT (WT) (IC50 class)
T4 construct: purchased Signalchem K06-11BG
T4 sequence (P10721 26-976): as the sequence (P10721 26-976 D816V) above, with V791D counted along it
Method: as §3, §4

various kinases = experiment: Inhibitory activity against various kinases, DiscoverX scanMAX Kinase panel, % control at 1 μM; format: binding
Method: The activities of the compounds according to the present disclosure on various enzymes were evaluated. Specifically, it was commissioned DiscoverX to measure enzyme selectivity for the compounds of Examples 3, 9, and 83 above, and the experiment was conducted using a panel for scanMAX™ Kinase analysis. Herein, a solution prepared by dissolving in DMSO at a concentration of 1 μM was used as the drug treated with the enzyme, and the control percentage (% control) was determined by the method of Equation 1 below, and the results are shown in Table 8 below.
Herein, when the calculated percentage value for each enzyme was less than 35%, it was determined to have inhibitory activity for the enzyme. Accordingly, among the series of enzymes tested, the enzymes showing the inhibitory activities of the compounds of the present disclosure are summarized and shown in Table 8 below along with the control percentages thereof. (©): less than 10%; ◯: 10% or more to less than 35%).

c-KIT D816V [2] = biological target: T2, c-KIT D816V; settings: background art; cited from earlier work

T1 sequence (P16234 24-1089): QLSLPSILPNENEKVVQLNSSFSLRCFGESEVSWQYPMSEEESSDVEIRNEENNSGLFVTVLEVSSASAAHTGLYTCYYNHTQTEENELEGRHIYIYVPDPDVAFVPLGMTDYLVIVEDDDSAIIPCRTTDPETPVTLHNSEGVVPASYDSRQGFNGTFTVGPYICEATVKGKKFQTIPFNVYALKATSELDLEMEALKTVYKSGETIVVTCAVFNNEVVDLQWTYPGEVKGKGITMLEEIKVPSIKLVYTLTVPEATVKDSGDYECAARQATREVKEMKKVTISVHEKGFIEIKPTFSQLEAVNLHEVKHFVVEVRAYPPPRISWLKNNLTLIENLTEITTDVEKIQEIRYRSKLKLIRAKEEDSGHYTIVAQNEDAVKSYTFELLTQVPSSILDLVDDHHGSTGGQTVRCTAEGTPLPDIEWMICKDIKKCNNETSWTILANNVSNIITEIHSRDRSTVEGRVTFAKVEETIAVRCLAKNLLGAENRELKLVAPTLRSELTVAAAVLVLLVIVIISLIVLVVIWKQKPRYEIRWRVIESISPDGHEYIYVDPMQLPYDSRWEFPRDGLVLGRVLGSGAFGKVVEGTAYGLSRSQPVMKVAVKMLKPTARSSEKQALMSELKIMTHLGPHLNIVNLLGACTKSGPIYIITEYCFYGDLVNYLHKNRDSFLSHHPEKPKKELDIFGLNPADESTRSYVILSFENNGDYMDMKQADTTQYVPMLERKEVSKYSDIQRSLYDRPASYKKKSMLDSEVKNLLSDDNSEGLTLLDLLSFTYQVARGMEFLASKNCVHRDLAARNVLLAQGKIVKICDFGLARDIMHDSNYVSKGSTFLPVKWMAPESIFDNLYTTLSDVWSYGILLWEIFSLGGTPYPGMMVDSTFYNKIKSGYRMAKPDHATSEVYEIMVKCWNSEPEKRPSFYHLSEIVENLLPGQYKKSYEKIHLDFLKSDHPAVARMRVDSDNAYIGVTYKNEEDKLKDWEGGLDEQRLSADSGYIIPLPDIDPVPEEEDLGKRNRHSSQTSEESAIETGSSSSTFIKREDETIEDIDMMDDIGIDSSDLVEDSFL

| IC50 (human PDGFR-α(wt)) [nM] | GI50 (Ba/F3-TEL-PDGFβ(WT)) [nM] | GI50 (Ba/F3-TEL-PDGFRα(WT)) [nM] | GI50 (Ba/F3-c-KIT(D816V)) [nM] | IC50 (c-KIT D816V [1]) [nM] | GI50 (c-KIT V560G/D816V) [nM] | GI50 (c-KIT D814Y) [nM] | IC50 (human PDGFR-β(wt)) [nM] | IC50 (human c-KIT(wt)) [nM] | control percentage (% control), KIT (various kinases) | control percentage (% control), KIT (A829P) (various kinases) | control percentage (% control), KIT (D816H) (various kinases) | control percentage (% control), KIT (D816V) (various kinases) | control percentage (% control), KIT (L576P) (various kinases) | control percentage (% control), KIT (V559D) (various kinases) | Compound | also measured |
| --- | --- | --- | --- | --- | --- | --- | --- | --- | --- | --- | --- | --- | --- | --- | --- | --- |
| ≤ 50 | ≤ 200 | ≤ 200 | ≤ 200 | ≤ 50 | ≤ 200 | ≤ 200 | ≤ 50 | ≤ 50 | ⊚ | ⊚ | ⊚ | ⊚ | ◯ (◯: 10% or more to less than 35%) | ◯ (◯: 10% or more to less than 35%) | COc1cc2c(-c3ccc(NC(=O)Cc4ccc(C(F)(F)F)cc4)cc3)ncnc2cc1OCCCN1CCN(C)CC1 [Example 9, N-(4-(6-methoxy-7-(3-(4-methylpiperazin-1-yl)propoxy)quinazolin-4-yl)phenyl)-2-(4-(trifluoromethyl)phenyl)acetamide] | – |
| – | – | – | – | – | – | – | – | – | – | – | – | – | – | – | Cc1ccc(NC(=O)c2ccc(CN3CCN(C)CC3)cc2)cc1Nc1nccc(-c2cccnc2)n1 [imatinib] | effect of inhibiting c-KIT D816V (c-KIT D816V [2]): no effect |
| ≤ 50 | ≤ 200 | ≤ 200 | ≤ 200 | ≤ 50 | ≤ 200 | ≤ 200 | ≤ 50 | ≤ 50 | ⊚ | ⊚ | ⊚ | ⊚ | ⊚ | ⊚ | COc1cc2c(-c3ccc(NC(=O)Cc4ccc(C(F)(F)F)cc4)cc3)ncnc2cc1OCCN1CCN(C)CC1 [Example 3, N-(4-(6-methoxy-7-(2-(4-methylpiperazin-1-yl)ethoxy)quinazolin-4-yl)phenyl)-2-(4-(trifluoromethyl)phenyl)acetamide] | control percentage (% control), KIT (V559D, T670I) (various kinases; KIT (V559D, T670I)): ◯ (◯: 10% or more to less than 35%); control percentage (% control), KIT (V559D, V654A) (various kinases; KIT (V559D, V654A)): ⊚; control percentage (% control), KIT-autoinhibited (various kinases; KIT-autoinhibited): ◯ (◯: 10% or more to less than 35%); control percentage (% control), PDGFRA (various kinases; PDGFRA): ⊚; control percentage (% control), PDGFRB (various kinases; PDGFRB): ⊚ |
